From PMC7539012, “Hyperphosphorylated tau aggregation and cytotoxicity modulators screen identified prescription drugs linked to Alzheimer's disease and cognitive functions” (Scientific Reports, 2020) come the findings set out here.

Counter-ions that a name gives are not always drawn.

One test deals with T1, 1N4R p-tau.
T1 construct: made in house; host or cells: E. coli (PIMAX system)
Briefly: p-tau aggregation modulator screen of 1280-compound library (ThS fluorescence net change over 16 h).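 On ThS net change: 30 µM compound with 6 µM p-tau over 16 h.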 Details: key to PTAI>3SD: *: PTAI>3SD.
Conditions: not given
Format: biochemical.
`CN(C)CCCN1c2ccccc2CCc2ccc(Cl)cc21` [Clomipramine hydrochloride] showed a ThS net change of 307. Same read-out and setting: the figure for `Cc1c(Cl)cccc1Nc1ncccc1C(=O)O.NCCCC[C@H](N)C(=O)O` [Clonixin Lysinate] is 462; for `C[C@@H]1C[C@@H]([C@H](O)CC2CC(=O)NC(=O)C2)C(=O)[C@@H](C)C1` [Cycloheximide] it is 442. On the same count and under the same terms, next, `O=P1(N(CCCl)CCCl)NCCCO1` (stereo not shown) [Cyclophosphamide]: 440; `COc1cccc2c1C(=O)c1c(O)c3c(c(O)c1C2=O)C[C@@](O)(C(C)=O)C[C@@H]3O[C@H]1C[C@H](N)[C@H](O)[C@H](C)O1` [Daunorubicin hydrochloride]: 235. The same measure, in the same setting: the figure for `CC(=O)N(O)CCCCCNC(=O)CCC(=O)N(O)CCCCCNC(=O)CCC(=O)N(O)CCCCCN` [Deferoxamine mesylate] is 439.

Staying with this test, now noted: 1280-compound library screen; ThS fluorescence net change over 16 h.
`CCC(=O)O[C@]1(C(=O)CCl)[C@@H](C)C[C@H]2[C@@H]3CCC4=CC(=O)C=C[C@]4(C)[C@@]3(F)[C@@H](O)C[C@@]21C` [Clobetasol propionate] yielded a ThS net change of 409. On the same count and under the same terms, the figure for `Cl.Clc1ccc(C(OCCN2CCCCC2)c2ccccc2)cc1` (stereo not shown) [Cloperastine hydrochloride] is 386. On the same count and under the same terms, next, `C#CCN(C)CCCOc1ccc(Cl)cc1Cl` [Clorgyline hydrochloride]: 400; `Nc1cc(C(Cl)=C(Cl)Cl)c(S(N)(=O)=O)cc1S(N)(=O)=O` [Clorsulon]: 393. In turn, `Clc1ccccc1C(c1ccccc1)(c1ccccc1)n1ccnc1` [Clotrimazole] had a ThS net change of 396. The same measure, in the same setting: the figure for `Cc1onc(-c2ccccc2Cl)c1C(=O)N[C@@H]1C(=O)N2[C@@H]1SC(C)(C)[C@@H]2C(=O)[O-].[Na+]` [Cloxacillin sodium salt] is 380.

As for `C[C@]12CCC(=O)C=C1CC[C@@H]1[C@@H]2C(=O)C[C@@]2(C)[C@H]1CC[C@]2(O)C(=O)CO` [Cortisone], the ThS net change stood at 403. The same measure, in the same setting: next, `CN(C)CCOC(=O)C(c1ccccc1)C1(O)CCCC1` (stereo not shown) [Cyclopentolate hydrochloride]: 412. On the same count and under the same terms, next, `Nc1ccn([C@@H]2O[C@H](CO)[C@@H](O)[C@@H]2O)c(=O)n1` [Cytarabine]: 392; `N[C@@H]1CON=C1O` [D-cycloserine]: 405; `CN(C)/N=N/c1[nH]cnc1C(N)=O` [Dacarbazine]: 392. As for `Nc1ccc(S(=O)(=O)c2ccc(N)cc2)cc1` [Dapsone], the ThS net change came out at 382. On the same count and under the same terms, next, `C[N+](C)(C)CCCCCCCCCC[N+](C)(C)C` [Decamethonium bromide]: 390.

Staying with this test, now noted: 1280-compound library screen; […].
`CCN(CC)CCOc1ccc(/C(=C(/Cl)c2ccccc2)c2ccccc2)cc1.O=C(O)CC(O)(CC(=O)O)C(=O)O` [Clomiphene citrate (Z,E)] displayed a ThS net change of 409. Still for that read-out and setting: next, `NC(=O)C(c1ccccc1)(c1ccccc1)[C@@H]1CCN(CCc2ccc3c(c2)CCO3)C1` [Darifenacin hydrobromide]: 384.

The same test, now with this note: flag: p-tau aggregation inhibitor, ThS net change more than 3 SD from mean.
With `NS(=O)(=O)c1cc2c(cc1Cl)NC(CC1CCCC1)NS2(=O)=O` (stereo not shown) [Cyclopenthiazide], the “PTAI>3SD” value is listed as “*”.

Still in this test, the particulars now being: library screen, ThS fluorescence net change over 16 h with p-tau.
Compound `CCCCCCC[N+](CC)(CC)CCCCc1ccc(Cl)cc1.Cc1ccc(S(=O)(=O)[O-])cc1` [Clofilium tosylate] registered a ThS net change of 326. The same measure, in the same setting: the figure for `NS(=O)(=O)c1cc2c(cc1Cl)NC(CC1CCCC1)NS2(=O)=O` (stereo not shown) [Cyclopenthiazide] is 0; for `O=C1CN(/N=C/c2ccc(-c3ccc([N+](=O)[O-])cc3)o2)C([O-])=N1.[Na+]` [Dantrolene sodium salt] it is 286.

The same test, now with this note: p-tau aggregation modulator screen of 1280-compound library; ThS fluorescence net change.
`Oc1c(I)cc(Cl)c2cccnc12` [Clioquinol] yielded a ThS net change of 336. Still for that read-out and setting: the figure for `CC(CN(C)C)C(C)(O)Cc1ccc(Cl)cc1.Cl` (stereo not shown) [Clobutinol hydrochloride] is 336; for `CC(C)(Oc1ccc(Cl)cc1)C(=O)O` [Clofibric acid] it is 349.

For the compound `Clc1cccc(Cl)c1N=C1NCCN1` [Clonidine hydrochloride], the ThS net change is recorded as 330. Consider `C[C@@H]1CCC[C@H](C)N1NC(=O)c1ccc(Cl)c(S(N)(=O)=O)c1` [Clopamide], for which the ThS net change is reported as 369. Regarding `CN1CCN(C2=Nc3cc(Cl)ccc3Nc3ccccc32)CC1` [Clozapine], the ThS net change was 368. The compound `CC(=O)OCC(=O)[C@@]1(O)CC[C@H]2[C@@H]3CCC4=CC(=O)CC[C@]4(C)[C@H]3[C@@H](O)C[C@@]21C` [Cortisol acetate] came in with a ThS net change of 369.

`O=C(O)c1cc(=O)c2c(OCC(O)COc3cccc4oc(C(=O)O)cc(=O)c34)cccc2o1` [Cromolyn disodium salt] yielded a ThS net change of 360. On the same count and under the same terms, the figure for `CN1CCN(C(c2ccccc2)c2ccccc2)CC1.Cl` [Cyclizine hydrochloride] is 377. The same measure, in the same setting: the figure for `CN1CCC(=C2c3ccccc3C=Cc3ccccc32)CC1` [Cyproheptadine hydrochloride] is 375. Same read-out and setting: next, `COc1ccccc1N1CCN(CCCCNC(=O)c2ccc3ccccc3c2)CC1.Cl.Cl` [DO 897/99]: 374; `N=C(N)N1CCc2ccccc2C1` [Debrisoquin sulfate]: 360; `C[C@H](CCC(=O)O)[C@H]1CC[C@H]2[C@@H]3C(=O)C[C@@H]4CC(=O)CC[C@]4(C)[C@H]3CC(=O)[C@]12C` [Dehydrocholic acid]: 331.

Still in this test, the particulars now being: p-tau aggregation modulator screen of 1280-compound library; […].
The compound `O=P(O)(O)C(Cl)(Cl)P(=O)(O)O` [Clodronate] returned a ThS net change of 370.

As to `COc1cc2c(c(OC)c1OC)-c1ccc(OC)c(=O)cc1[C@@H](NC(C)=O)CC2` [Colchicine], the ThS net change worked out at 336.

The test is the same for the next values; noted with them: p-tau aggregation modulator screen of the compound library, ThS fluorescence net change.
The compound `C[C@@H]1C[C@H]2[C@@H]3C[C@H](F)C4=CC(=O)C=C[C@]4(C)[C@@]3(Cl)[C@@H](O)C[C@]2(C)[C@H]1C(=O)COC(=O)C(C)(C)C` [Clocortolone pivalate] registered a ThS net change of 414. The same measure, in the same setting: next, `CCOC(=O)C(C)(C)Oc1ccc(Cl)cc1` [Clofibrate]: 461; `COC(=O)[C@H](c1ccccc1Cl)N1CCc2sccc2C1` [Clopidogrel]: 499.

For the compound `Cc1cc(C(C#N)c2ccc(Cl)cc2)c(Cl)cc1NC(=O)c1cc(I)cc(I)c1O` (stereo not shown) [Closantel], the ThS net change was determined as 423. Same read-out and setting: the figure for `C[C@]12C[C@H](O)[C@H]3[C@@H](CCC4=CC(=O)CC[C@@]43C)[C@@H]1CC[C@@H]2C(=O)CO` [Corticosterone] is 416. On the same count and under the same terms, next, `CN(C)CCC=C1c2ccccc2C=Cc2ccccc21` [Cyclobenzaprine hydrochloride]: 414; `CC(=O)O[C@]1(C(C)=O)CC[C@H]2[C@@H]3C=C(Cl)C4=CC(=O)[C@@H]5C[C@@H]5[C@]4(C)[C@H]3CC[C@@]21C` [Cyproterone acetate]: 432.

`C#C[C@]1(O)CC[C@H]2[C@@H]3CCC4=Cc5oncc5C[C@]4(C)[C@H]3CC[C@@]21C` [Danazol] yielded a ThS net change of 495. Still for that read-out and setting: the figure for `CC(=O)OCC(=O)[C@@]12N=C(C)O[C@@H]1C[C@H]1[C@@H]3CCC4=CC(=O)C=C[C@]4(C)[C@H]3[C@@H](O)C[C@@]12C` [Deflazacort] is 420.
